# pKd: −log10 of the molar value.
# Target: T1, FLT3 K663Q (Homo sapiens, UniProt P36888, K663Q)
# T1 sequence (P36888 27-993 K663Q): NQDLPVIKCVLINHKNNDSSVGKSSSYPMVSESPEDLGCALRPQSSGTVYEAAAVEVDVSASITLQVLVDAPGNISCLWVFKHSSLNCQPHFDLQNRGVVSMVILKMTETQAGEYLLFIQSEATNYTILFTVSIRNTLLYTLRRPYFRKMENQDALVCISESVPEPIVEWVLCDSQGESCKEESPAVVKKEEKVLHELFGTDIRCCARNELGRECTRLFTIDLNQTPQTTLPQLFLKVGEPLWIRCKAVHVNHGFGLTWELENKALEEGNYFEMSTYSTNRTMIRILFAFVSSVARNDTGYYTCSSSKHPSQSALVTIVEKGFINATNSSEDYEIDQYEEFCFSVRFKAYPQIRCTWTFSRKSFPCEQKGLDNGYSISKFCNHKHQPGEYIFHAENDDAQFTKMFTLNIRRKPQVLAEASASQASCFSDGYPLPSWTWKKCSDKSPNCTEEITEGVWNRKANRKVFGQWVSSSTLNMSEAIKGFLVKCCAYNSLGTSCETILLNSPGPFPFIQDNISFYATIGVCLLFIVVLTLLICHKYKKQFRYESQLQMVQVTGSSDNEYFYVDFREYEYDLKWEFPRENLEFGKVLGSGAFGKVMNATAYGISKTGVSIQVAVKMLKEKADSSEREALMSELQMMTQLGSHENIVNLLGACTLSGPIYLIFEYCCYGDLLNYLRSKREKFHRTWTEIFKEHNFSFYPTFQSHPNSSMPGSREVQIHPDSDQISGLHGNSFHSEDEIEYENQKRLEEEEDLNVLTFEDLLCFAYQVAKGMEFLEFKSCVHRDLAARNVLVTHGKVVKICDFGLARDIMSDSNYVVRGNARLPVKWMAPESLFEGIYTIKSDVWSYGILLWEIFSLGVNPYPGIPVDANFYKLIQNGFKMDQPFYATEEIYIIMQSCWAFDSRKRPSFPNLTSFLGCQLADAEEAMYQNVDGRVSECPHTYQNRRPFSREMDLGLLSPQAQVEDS
# Experiment: DiscoverX KINOMEscan active site-directed competition binding, FLT3 K663Q
# Conditions: Table 13; no ATP
# Text: (§1) Kinase binding data were obtained for various exemplary compounds prepared according to Examples 1-8 using the DiscoverX KINOMEscan® active site-directed competition binding site-directed assay protocol described below. […] As a result, the data report thermodynamic interaction affinities (Kd values), rather than IC50 values that are dependent on ATP concentrations. The assay uses a DNA-tagged version of the protein kinase, and an immobilized ligand bound to a solid support. Compounds that directly or indirectly prevent kinase binding to the immobilized ligand reduce the amount of kinase captured on the solid support, which is detected using an ultra-sensitive qPCR method. Affinity constants reported from the assay have been reported to be independent of the immobilized ligand used that is coupled to the solid support (See supplemental information in Fabian, M. A. et. al., (2005) Nat. Biotechnol. 23, 329-336; Wodicka, L. M. et. al., (2010) Chem. Biol. 17, 1241-1249.)
# Kinase-tagged T7 phage strains were prepared in an E. coli host derived from the BL21 strain. E. coli were grown to log-phase and infected with T7 phage and incubated with shaking at 32 °C until lysis. The lysates were centrifuged and filtered to remove cell debris. The remaining kinases were produced in HEK-293 cells and subsequently tagged with DNA for qPCR detection. Streptavidin-coated magnetic beads were treated with biotinylated small molecule ligands for 30 minutes at room temperature to generate affinity resins for kinase assays. The liganded beads were blocked with excess biotin and washed with blocking buffer (SeaBlock (Pierce), 1% BSA, 0.05% Tween 20, 1 mM DTT) to remove unbound ligand and to reduce non-specific binding. […] Test compounds were prepared as 111x stocks in 100% DMSO. Kds were determined using an 11-point 3-fold compound dilution series with three DMSO control points. All compounds for Kd measurements are distributed by acoustic transfer (non-contact dispensing) in 100% DMSO. The compounds were then diluted directly into the assays such that the final concentration of DMSO was 0.9%. All reactions were performed in polypropylene 384-well plates. Each was a final volume of 0.02 mL. The assay plates were incubated at room temperature with shaking for 1 hour and the affinity beads were washed with wash buffer (1×PBS, 0.05% Tween 20). The beads were then re-suspended in elution buffer (1×PBS, 0.05% Tween 20, 0.5 μM nonbiotinylated affinity ligand) and incubated at room temperature with shaking for 30 minutes. The kinase concentration in the eluates was measured by qPCR. Binding constants (Kds) were calculated with a standard dose-response curve using the Hill equation. The Hill Slope was set to −1. Curves were fitted using a non-linear least square fit with the Levenberg-Marquardt algorithm.
# as §1, with “9-12” for “1-8”
# Kinase-tagged T7 phage strains were prepared in an E. coli host derived from the BL21 strain. […]
row,pKd,Structure (SMILES)
1,8.80,"COc1cn2ncc(-c3nc(N[C@H]4CNCC[C@@H]4F)c(F)cc3F)c2nc1C(C)(C)O [Compound 13, 2-(3-(3,5-difluoro-6-(((3S,4S)-4-fluoropiperidin-3-yl)amino)pyridin-2-yl)-6-methoxypyrazolo[1,5-a]pyrimidin-5-yl)propan-2-ol]"
2,8.96,"COc1cn2ncc(-c3nc(N[C@H]4CNCC[C@@H]4F)c(C#N)cc3F)c2nc1C(C)(C)O [Compound 10, 5-fluoro-2-(((3S,4S)-4-fluoropiperidin-3-yl)amino)-6-(5-(2-hydroxypropan-2-yl)-6-methoxypyrazolo[1,5-a]pyrimidin-3-yl)nicotinonitrile]"
3,> 9.77,"COc1cn2ncc(-c3nc(N[C@H]4CNCC[C@@H]4F)c(C#N)cc3F)c2nc1C1CC1 [Compound 7, 6-(5-cyclopropyl-6-methoxypyrazolo[1,5-a]pyrimidin-3-yl)-5-fluoro-2-(((3S,4S)-4-fluoropiperidin-3-yl)amino)nicotinonitrile]"

# Same assay, conditions: Table 19; no ATP
row,pKd,Structure (SMILES)
1,> 9.77,"COc1cn2ncc(-c3nc(N[C@@H]4CCCNC4)ncc3F)c2nc1C1CC1 [Compound 14a, (R)-4-(5-cyclopropyl-6-methoxypyrazolo[1,5-a]pyrimidin-3-yl)-5-fluoro-N-(piperidin-3-yl)pyrimidin-2-amine]"
2,9.68,"COc1cn2ncc(-c3nc(N[C@H]4CNCC[C@@H]4F)ncc3F)c2nc1C1CC1 [Compound 15a, 4-(5-cyclopropyl-6-methoxypyrazolo[1,5-a]pyrimidin-3-yl)-5-fluoro-N-((3S,4S)-4-fluoropiperidin-3-yl)pyrimidin-2-amine]"
3,9.36,"COc1cn2ncc(-c3cncc(N[C@H]4CNCC[C@@H]4F)n3)c2nc1C1CC1 [Compound 12a, 6-(5-cyclopropyl-6-methoxypyrazolo[1,5-a]pyrimidin-3-yl)-N-((3S,4S)-4-fluoropiperidin-3-yl)pyrazin-2-amine]"
4,8.70,"COc1cn2ncc(-c3nc(N[C@H]4CNCC[C@@H]4F)ncc3F)c2nc1C(C)(C)O [Compound 6a, 2-(3-(5-fluoro-2-(((3S,4S)-4-fluoropiperidin-3-yl)amino)pyrimidin-4-yl)-6-methoxypyrazolo[1,5-a]pyrimidin-5-yl)propan-2-ol]"
5,9.09,"COc1cn2ncc(-c3ccnc(N[C@H]4CNCC[C@@H]4F)n3)c2nc1C1CC1 [Compound 7a, 4-(5-cyclopropyl-6-methoxypyrazolo[1,5-a]pyrimidin-3-yl)-N-((3S,4S)-4-fluoropiperidin-3-yl)pyrimidin-2-amine]"
